According to patent US6485941B1, “Inhibition of the carboxyltransferase component of acetyl-CoA carboxylase, and the use of such inhibition in anti-cancer and anti-lipogenic therapies” (Board of Supervisors of Louisiana State University and …, priority 2002, dated 2002):

How the values were obtained:
[1] = target: T1, murine acetyl-CoA carboxylase (Mus musculus, UniProt Q5SWU9); assay: Acetyl-CoA carboxylase activity in cell-free extracts of pre-adipocytes, compound added to extract; assay type: biochemical
T1 construct: endogenous in cells; host or cells: murine 3T3-L1 pre-adipocytes (cytosolic extract)
Procedure: (§1) The above procedure was modified to prepare extracts for enzymatic analysis. The non-denaturing buffer in that case contained 150 mM KCl instead of NaCl, and there was no Triton X-100, Nonidet P-40, nor any protease or phosphatase inhibitors in the buffer. The cell monolayers were scraped into this buffer, and were homogenized with 16 strokes in a Dounce homogenizer. The homogenates were centrifuged at 10,000 g for 5 minutes, and the supernatants were saved as cytosolic extract, quantitated, and used to assay acetyl-CoA carboxylase activity.
The activity of acetyl-CoA carboxylase from 3T3-L1 cell lysates was determined in a fixed-time assay using HPLC. HPLC is not normally used in this field, because cell lysates are mixtures of such a large number of different components; it would be more conventional to use an assay employing radioactivity. […] This assay will be useful in monitoring the progress and reaction of patients who are administered treatment in accordance with this invention.
(§2) Assays were performed by measuring the loss of acetyl-CoA, or the production of malonyl-CoA, at 5 minute intervals for 20 minutes, using reverse-phase HPLC. […] Rates were calculated by linear regression analysis of malonyl-CoA concentration as a function of time. […] Following termination of the reaction, the samples were centrifuged (3 min, 10,000 g) and then analyzed by HPLC. […]

malate dehydrogenase = assay: Coupling enzyme control (NAD+ reduction after addition of acetyl-CoA); assay type: biochemical; settings: 0.6 mM compound
Procedure: (§3) Carboxyltransferase was assayed in the reverse direction: the production of acetyl-CoA was detected by using the coupling enzymes malate dehydrogenase and citrate synthase, and the reduction of NAD^+ was measured spectrophotometrically by the method of C. Blanchard et al., J. Biol. Chem. 273, 19140-19145 (1998); and R. Guchhait et al., Methods Enzymol. 35, 32-37 (1975).
(§4) The bisubstrate analog had previously been observed not to inhibit the activity of either of these coupling enzymes at 0.6 mM, a value three times higher than the highest concentration used in the inhibition studies.

citrate synthase = assay: as above; assay type: biochemical; settings: 0.6 mM compound
Procedure: as §3, §4

[2] = target: T2, carboxyltransferase component of E. coli acetyl-CoA carboxylase (Escherichia coli, UniProt P0A9Q5+P0ABD5); assay: Carboxyltransferase inhibition, assayed in the reverse direction with coupled spectrophotometric detection; assay type: biochemical
T2 construct: made in house; host or cells: E. coli overexpression strain (Blanchard et al. 1998; G. Waldrop, LSU)
T2 sequence (P0ABD5 1-319): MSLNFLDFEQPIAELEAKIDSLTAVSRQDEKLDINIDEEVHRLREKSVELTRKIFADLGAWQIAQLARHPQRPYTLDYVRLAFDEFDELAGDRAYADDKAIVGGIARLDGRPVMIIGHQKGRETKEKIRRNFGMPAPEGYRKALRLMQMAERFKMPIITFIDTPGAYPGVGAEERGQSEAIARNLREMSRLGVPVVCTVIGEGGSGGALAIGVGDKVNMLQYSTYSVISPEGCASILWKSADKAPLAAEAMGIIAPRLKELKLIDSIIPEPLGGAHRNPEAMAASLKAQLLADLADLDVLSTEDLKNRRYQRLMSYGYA
T2 sequence (P0A9Q5 1-304): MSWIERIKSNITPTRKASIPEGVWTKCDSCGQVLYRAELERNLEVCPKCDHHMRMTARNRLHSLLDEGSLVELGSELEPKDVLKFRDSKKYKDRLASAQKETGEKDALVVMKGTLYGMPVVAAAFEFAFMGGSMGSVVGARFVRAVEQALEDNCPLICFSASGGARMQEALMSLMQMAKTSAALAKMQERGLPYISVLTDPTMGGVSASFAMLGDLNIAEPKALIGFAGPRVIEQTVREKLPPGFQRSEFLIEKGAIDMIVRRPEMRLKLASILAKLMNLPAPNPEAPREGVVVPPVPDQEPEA
Procedure: Carboxyltransferase was purified from a strain of E. coli that overexpresses the genes encoding the α and β subunits of the enzyme. C. Blanchard et al., J. Biol. Chem. 273, 19140-19145 (1998). (E. coli strain available on request from G. Waldrop, Department of Biological Sciences, Louisiana State University, Baton Rouge, La.) The published procedure was modified slightly. Bacteria were grown to saturation at 37° C. in 1 L of LB medium in 2 L flasks, and were then induced with 1 g of lactose and incubated without shaking at 25° C. for 24 h. The concentration of carboxyltransferase was determined by the method of M. Bradford, Anal. Biochem. 72, 248-254 (1976) using bovine serum albumin as a standard.
as §3
In Equations [1] and [2], v is the initial velocity, Vm is the maximal velocity, A is the substrate concentration, I is the concentration of inhibitor, Km is the Michaelis constant, Kis is the slope inhibition constant, and Kii is the intercept inhibition constant.
v=VmA/(Km(1+I/Kis)+A(1+I/Kii))
The activity of carboxyltransferase was measured in the reverse direction using malonyl-CoA and biocytin as substrates.

acetyl-CoA carboxylase = target: T3, acetyl-CoA carboxylase (Mus musculus, UniProt Q5SWU9); assay: Acetyl-CoA carboxylase activity in lysates of treated pre-adipocytes (HPLC fixed-time assay); assay type: cell-based, murine; settings: pre-adipocytes treated with 10 μM for four hours; DMSO control 1.40 nmol/min-mg
T3 construct: endogenous in cells; host or cells: murine 3T3-L1 pre-adipocytes (cytosolic extract)
Procedure: as §1
The activity of acetyl-CoA carboxylase from 3T3-L1 cell lysates was determined in a fixed-time assay using HPLC. HPLC is not normally used in this field, because cell lysates are mixtures of such a large number of different components; it would be more conventional to use an assay employing radioactivity. […]
as §2
We also examined whether there was a concomitant decrease in the activity of acetyl-CoA carboxylase. […] Acetyl-CoA carboxylase activity was measured by analytical reverse phase HPLC. […]

3T3-L1 pre-adipocytes = assay: 3T3-L1 adipocyte differentiation (Western blot of transcription factors, Oil Red O staining); assay type: cell-based, murine
Procedure: Murine 3T3-L1 pre-adipocytes (a kind gift from Howard Green, Harvard University, Cambridge, Mass.) were plated and grown to 2 days post-confluence in DMEM supplemented with 10% bovine serum. Medium was changed every 48 hours. Cells were induced to differentiate into adipocytes by changing the medium to DMEM supplemented with 10% fetal bovine serum (FBS), 0.5 mM 3-isobutyl-1-methylxanthine (MIX) (Sigma), 1 μM dexamethasone (DEX) (Sigma), and 1.7 μM insulin (Sigma). After 48 hours this medium was replaced with DMEM supplemented with 10% FBS, and the cells were maintained in this medium until they were used in experiments. Compound 2 was dissolved in DMSO and added to the cell culture media at a 1:1000 dilution for experiments. Vehicle additions were also conducted for each experiment as controls.
Monolayers of 3T3-L1 adipocytes were rinsed with phosphate-buffered saline (PBS) and then harvested in a non-denaturing buffer containing 150 mM NaCl, 10 mM Tris, pH 7.4, 1 mM EGTA, 1 mM EDTA, 1% Triton-X 100, 0.5% Nonidet P-40 detergent (Sigma), 1 μM PMSF (phenylmethylsulfonyl fluoride protease inhibitor, Sigma), 1 μM pepstatin (Sigma), 50 trypsin inhibitory milliunits of aprotinin (Sigma), 10 μM leupeptin (Sigma), and 2 mM sodium vanadate (Fisher Chemical, Fair Lawn, […]) for Western blot analysis. Samples were extracted for 30 minutes on ice and centrifuged at 10,000 g at 4° C. for 15 minutes. Supernatants containing whole cell extracts were analyzed for protein content using a BCA kit (Pierce) according to the manufacturer's instructions.
Proteins were separated in 5%, 7.5%, or 12% polyacrylamide (National Diagnostics, […].) gel containing sodium dodecyl sulfate (SDS) following the procedure of U. Laemmli, Nature 227, 680-685 (1970). Proteins were then transferred to nitrocellulose (BioRad, Atlanta, Ga.) in 25 mM Tris, 192 mM glycine, and 20% methanol. Following transfer, the membrane was blocked in 4% milk (non-fat, dried milk reconstituted in water at a 4% concentration (w/v)) for 1 hour at room temperature. Results were visualized with horseradish peroxidase (HRP)-conjugated secondary antibodies (Sigma) and enhanced chemiluminescence (Pierce).
The murine 3T3-L1 pre-adipocyte cell line was used to examine the effects of Compound 2 on adipocyte differentiation. The 3T3-L1 cell line can be induced to differentiate in culture from fibroblasts, or pre-adipocytes, into cells with the morphological and biochemical properties of adipocytes. […] For example, these cells accumulate lipids, respond to insulin, and secrete leptin. The 3T3-L1 pre-adipocytes were first grown to a confluent monolayer. At two days post-confluence, the cells were exposed to a “differentiation cocktail” (FBS, MIX, DEX, and insulin) for 48 hours, and the cells were then maintained in 10% FBS in DMEM in the presence or absence of various doses of Compound 2. A vehicle addition of DMSO was also performed as a control. Compound 2 or DMSO was added in a 1-to-1000 dilution to the cell culture medium every 24 hours. One week after treatment with the differentiation cocktail, whole cell extracts were prepared, and cells were stained with Oil Red O to assess lipid accumulation.
The differentiation of pre-adipocytes into adipocytes has been attributed, in part, to increased expression of several transcription factors, including PPARγ and STATs 1, 5A, and 5B. To observe the differentiation of pre-adipocytes into adipocytes, the expression of these transcription factors was examined by Western blot analysis (data not shown). Adipogenesis was also assessed by examining lipid accumulation, as judged by Oil Red O staining (data not shown).
Whole cell extracts were prepared one week after the induction of differentiation in the presence of 0, 1, 2, 4, 8, or 17 μM doses of Compound 2, or treatment with DMSO (vehicle), with treatments in each case repeated every 24 hours. […]

[3] = tested on: breast cancer cell line MCF7; assay: MCF7 cellular proliferation (counting viable cells as a function of time); assay type: cell-based; settings: preliminary data; number of viable cells as a function of time
From the text: Cancer cells also typically have high levels of fatty acid synthesis. Various inhibitors of fatty acid synthesis are currently in clinical trials for the treatment of breast cancers. Since acetyl-CoA carboxylase—not fatty acid synthase—is the rate-limiting enzyme in fat synthesis, the inhibition of acetyl-CoA carboxylase with the bisubstrate analog should be at least as effective in treating cancers as fatty acid synthesis inhibitors, if not more so.

Row | Compound | effect on acetyl-CoA carboxylase activity in cell-free extracts [1] | inhibition of coupling enzyme malate dehydrogenase (malate dehydrogenase) | inhibition of coupling enzyme citrate synthase (citrate synthase) | Ki [2] | binding energy of the inhibitor relative to the sum of binding energies of the two substrates (times less) [2] | factor by which the product of the substrate dissociation constants exceeds the inhibition constant ([2]; Km of malonyl-CoA and biocytin used as dissociation constants) | inhibition pattern with malonyl-CoA as the variable substrate ([2]; biocytin held constant at 6.0 mM) | inhibition pattern with biocytin as the variable substrate ([2]; malonyl-CoA held constant at 0.1 mM) | Km ([2]; substrate of carboxyltransferase, reverse direction) | activity of acetyl-CoA carboxylase from treated cells (acetyl-CoA carboxylase) | adipocyte differentiation of 3T3-L1 cells (3T3-L1 pre-adipocytes; 0, 1, 2, 4, 8 or 17 μM, repeated every 24 hours, one week) | induction of PPARγ expression (Western blotting) (3T3-L1 pre-adipocytes; 17 μM or 8 μM) | lipid accumulation (Oil Red O staining) (3T3-L1 pre-adipocytes; 17 μM or 8 μM) | levels of STAT3 (3T3-L1 pre-adipocytes; Western blot) | expression of STATs 1 and 5A (3T3-L1 pre-adipocytes; Western blot, during induced differentiation) | reversibility of inhibition of differentiation (3T3-L1 pre-adipocytes; compound not re-added at 24 hour intervals after initial treatment) | cellular proliferation of MCF7 [3]
1 | CC(C)(COP(=O)(O)OP(=O)(O)OCC1OC(n2cnc3c(N)ncnc32)C(O)C1OP(=O)(O)O)C(O)C(=O)NCCC(=O)NCCSCC(=O)N1C(=O)NC2C(CCCCC(=O)OCc3ccccc3)SCC21 (stereo not drawn) [Compound 1] | inhibited murine acetyl-CoA carboxylase activity | No decrease in activity | No decrease in activity | 23 ± 2 µM | about 1.3 | about 35 | competitive inhibition | noncompetitive inhibition | – | – | – | – | – | – | – | – | –
2 | N[C@@H](CCCCNC(=O)CCCC[C@@H]1SC[C@@H]2NC(=O)N[C@@H]21)C(=O)O [biocytin] | – | – | – | – | – | – | – | – | 8 mM | – | – | – | – | – | – | – | –
3 | phenylmethyl 5-(6,8-diaza-6-(2-X-acetyl)-7-oxo-3-thiabicyclo[3.3.0]oct-2-yl)pentanoate [Compound 2] | had no effect | – | – | – | – | – | – | – | – | 0.30 nmol malonyl-CoA/min-mg | inhibited adipocyte differentiation of 3T3-L1 cells in a dose-dependent manner | blocked the induction of PPARγ expression | blocked lipid accumulation | unaffected | inhibited in a dose-dependent manner | reversible | inhibited cellular proliferation in that cell line in a dose-dependent manner
